Experimental data published in the OligoGym collection.
HELM strings list units from the 5' end as sugar, base in round brackets, then linkage (d deoxyribose, r ribose, m 2'-O-methyl, p phosphodiester). Strings are as the collection lists them; they lack the last nucleoside at the 3' end of the tested compound. [moe] = 2'-O-(2-methoxyethyl) (MOE); [sp] = phosphorothioate linkage; [m5C] = 5-methylcytosine

What follows are substances tested against GFAP (assay: mouse, dose not given). Details: ASO.
“RNA1{[moe]([m5C])[sp].[moe]([m5C])p.[moe](T)p.[moe](T)p.[moe](G)p.d(T)[sp].d(G)[sp].d(A)[sp].d(T)[sp].d(T)[sp].d(T)[sp].d(T)[sp].d([m5C])[sp].d([m5C])[sp].d([m5C])[sp].[moe]([m5C])p.[moe](G)p.[moe](T)[sp].[moe]([m5C])}$$$$ (last 3' nucleoside missing)” was tested, and the 3 h FOB score was 0 score 0-7. Work on “RNA1{[moe](T)[sp].[moe]([m5C])p.[moe](T)p.[moe]([m5C])p.[moe](A)[sp].d(G)[sp].d(T)[sp].d(T)[sp].d(T)[sp].d(T)[sp].d([m5C])[sp].d([m5C])[sp].d(T)[sp].d([m5C])[sp].d([m5C])[sp].[moe](A)p.[moe](G)p.[moe]([m5C])[sp].[moe](A)}$$$$ (last 3' nucleoside missing)” yielded a 3 h FOB score of 4 score 0-7. “RNA1{[moe]([m5C])[sp].[moe](T)p.[moe](G)p.[moe]([m5C])p.[moe](T)[sp].d([m5C])[sp].d(T)[sp].d(T)[sp].d(T)[sp].d([m5C])[sp].d([m5C])[sp].d([m5C])[sp].d(T)[sp].d([m5C])[sp].d(A)[sp].[moe]([m5C])p.[moe](T)p.[moe](T)[sp].[moe](T)}$$$$ (last 3' nucleoside missing)” was tested, and the 3 h FOB score was 0 score 0-7. In the case of “RNA1{[moe](T)[sp].[moe](G)p.[moe](A)p.[moe](G)p.[moe](G)[sp].d([m5C])[sp].d(T)[sp].d(T)[sp].d(T)[sp].d(T)[sp].d(G)[sp].d(A)[sp].d(G)[sp].d(A)[sp].d(T)[sp].[moe](A)p.[moe](T)p.[moe]([m5C])[sp].[moe](T)}$$$$ (last 3' nucleoside missing)”, the 3 h FOB score is reported as 3 score 0-7. With “RNA1{[moe](A)[sp].[moe](T)p.[moe](T)p.[moe](T)p.[moe](G)p.[moe](T)p.d([m5C])[sp].d(T)[sp].d(T)[sp].d(T)[sp].d(A)[sp].d(T)[sp].d(T)[sp].d(T)[sp].d(T)[sp].d(T)[sp].[moe]([m5C])p.[moe]([m5C])[sp].[moe](T)}$$$$ (last 3' nucleoside missing)” the 3 h FOB score was 0 score 0-7. With “RNA1{[moe](T)[sp].[moe](T)p.[moe](G)p.[moe](T)p.[moe](G)p.[moe](A)p.d(T)[sp].d(T)[sp].d(T)[sp].d(T)[sp].d([m5C])[sp].d([m5C])[sp].d([m5C])[sp].d([m5C])[sp].d(G)[sp].d(T)[sp].[moe]([m5C])p.[moe](T)[sp].[moe](T)}$$$$ (last 3' nucleoside missing)” the 3 h FOB score was 4 score 0-7. “RNA1{[moe](A)[sp].[moe](G)p.[moe]([m5C])p.[moe]([m5C])p.[moe]([m5C])[sp].d([m5C])[sp].d(A)[sp].d([m5C])[sp].d([m5C])[sp].d(T)[sp].d(A)[sp].d(G)[sp].d(A)[sp].d(A)[sp].d(G)[sp].[moe](T)p.[moe](A)p.[moe]([m5C])[sp].[moe]([m5C])}$$$$ (last 3' nucleoside missing)” showed a 3 h FOB score of 2 score 0-7. For “RNA1{[moe](G)[sp].[moe](G)p.[moe](T)p.[moe](G)p.[moe](G)[sp].d(G)[sp].d(T)[sp].d(G)[sp].d([m5C])[sp].d([m5C])[sp].d(G)[sp].d(T)[sp].d([m5C])[sp].d(T)[sp].d(G)[sp].[moe](G)p.[moe]([m5C])p.[moe](A)[sp].[moe](G)}$$$$ (last 3' nucleoside missing)”, the 3 h FOB score was 7 score 0-7. Work on “RNA1{[moe](T)[sp].[moe](T)p.[moe](G)p.[moe](G)p.[moe]([m5C])[sp].d(A)[sp].d(G)[sp].d(T)[sp].d(A)[sp].d(T)[sp].d(T)[sp].d(A)[sp].d([m5C])[sp].[moe]([m5C])p.[moe](T)p.[moe]([m5C])[sp].[moe](T)}$$$$ (last 3' nucleoside missing)” yielded a 3 h FOB score of 0 score 0-7. “RNA1{[moe](A)[sp].[moe](G)p.[moe](G)p.[moe]([m5C])p.[moe](A)p.[moe]([m5C])p.d(A)[sp].d(G)[sp].d(T)[sp].d(T)[sp].d([m5C])[sp].d([m5C])[sp].d([m5C])[sp].d(A)[sp].d(G)[sp].d(A)[sp].[moe](T)p.[moe](A)[sp].[moe]([m5C])}$$$$ (last 3' nucleoside missing)” gave a 3 h FOB score of 1 score 0-7. Substance “RNA1{[moe](T)[sp].[moe](G)p.[moe](T)p.[moe](G)p.[moe](A)[sp].d(T)[sp].d(T)[sp].d(T)[sp].d(T)[sp].d([m5C])[sp].d([m5C])[sp].d([m5C])[sp].d([m5C])[sp].[moe](G)p.[moe](T)p.[moe]([m5C])[sp].[moe](T)}$$$$ (last 3' nucleoside missing)” has a 3 h FOB score of 0 score 0-7. In the case of “RNA1{[moe](G)[sp].[moe](A)p.[moe](A)p.[moe](T)p.[moe]([m5C])[sp].d(A)[sp].d(T)[sp].d(T)[sp].d(T)[sp].d([m5C])[sp].d(A)[sp].d(G)[sp].d(G)[sp].d(G)[sp].d([m5C])[sp].[moe]([m5C])p.[moe](A)p.[moe](A)[sp].[moe](T)}$$$$ (last 3' nucleoside missing)”, the 3 h FOB score is reported as 6 score 0-7. Work on “RNA1{[moe](T)[sp].[moe](G)p.[moe]([m5C])p.[moe]([m5C])p.[moe](A)p.d(T)[sp].d(T)[sp].d(T)[sp].d(A)[sp].d(T)[sp].d([m5C])[sp].d(T)[sp].d(G)[sp].d(T)[sp].d(G)[sp].[moe]([m5C])p.[moe](T)p.[moe](T)[sp].[moe](T)}$$$$ (last 3' nucleoside missing)” yielded a 3 h FOB score of 1 score 0-7. “RNA1{[moe](T)[sp].[moe](T)p.[moe](G)p.[moe](G)p.[moe](T)p.d(G)[sp].d([m5C])[sp].d(T)[sp].d(T)[sp].d(T)[sp].d(T)[sp].d(G)[sp].d([m5C])[sp].d([m5C])[sp].d([m5C])[sp].[moe]([m5C])p.[moe]([m5C])p.[moe](T)[sp].[moe](G)}$$$$ (last 3' nucleoside missing)” gave a 3 h FOB score of 0 score 0-7. In the case of “RNA1{[moe](T)[sp].[moe]([m5C])p.[moe]([m5C])p.[moe](T)p.[moe]([m5C])[sp].d(A)[sp].d(A)[sp].d(G)[sp].d(A)[sp].d(A)[sp].d([m5C])[sp].d([m5C])[sp].d(G)[sp].d(G)[sp].d(A)[sp].[moe](T)p.[moe]([m5C])p.[moe](T)[sp].[moe]([m5C])}$$$$ (last 3' nucleoside missing)”, the 3 h FOB score is reported as 1 score 0-7. In the case of “RNA1{[moe](A)[sp].[moe](A)p.[moe](A)p.[moe](G)p.[moe](G)p.d([m5C])[sp].d(A)[sp].d([m5C])[sp].d(A)[sp].d(G)[sp].d(T)[sp].d(T)[sp].d([m5C])[sp].d([m5C])[sp].d([m5C])[sp].[moe](A)p.[moe](G)p.[moe](A)[sp].[moe](T)}$$$$ (last 3' nucleoside missing)”, the 3 h FOB score is reported as 2 score 0-7. Work on “RNA1{[moe](G)[sp].[moe](T)p.[moe]([m5C])p.[moe](A)p.[moe](G)[sp].d([m5C])[sp].d([m5C])[sp].d(T)[sp].d(G)[sp].d(G)[sp].d(T)[sp].d(T)[sp].d(A)[sp].[moe](G)p.[moe]([m5C])p.[moe]([m5C])[sp].[moe](T)}$$$$ (last 3' nucleoside missing)” yielded a 3 h FOB score of 1 score 0-7. For “RNA1{[moe](T)[sp].[moe](T)p.[moe](G)p.[moe](T)p.[moe]([m5C])[sp].d(T)[sp].d(T)[sp].d(T)[sp].d(A)[sp].d(T)[sp].d(T)[sp].d(T)[sp].d(T)[sp].[moe](T)p.[moe]([m5C])p.[moe]([m5C])[sp].[moe](T)}$$$$ (last 3' nucleoside missing)”, the 3 h FOB score was 0 score 0-7. Work on “RNA1{[moe](G)[sp].[moe](G)p.[moe](T)p.[moe](G)p.[moe]([m5C])[sp].d(T)[sp].d(T)[sp].d(T)[sp].d(T)[sp].d(G)[sp].d([m5C])[sp].d([m5C])[sp].d([m5C])[sp].d([m5C])[sp].d([m5C])[sp].[moe](T)p.[moe]([m5C])p.[moe](G)[sp].[moe](A)}$$$$ (last 3' nucleoside missing)” yielded a 3 h FOB score of 1 score 0-7. “RNA1{[moe](T)[sp].[moe](G)p.[moe](A)p.[moe](G)p.[moe](A)[sp].d(T)[sp].d(A)[sp].d(T)[sp].d([m5C])[sp].d(T)[sp].d(T)[sp].d(G)[sp].d(T)[sp].d(G)[sp].d(A)[sp].[moe]([m5C])p.[moe]([m5C])p.[moe](T)[sp].[moe](T)}$$$$ (last 3' nucleoside missing)” gave a 3 h FOB score of 6 score 0-7. “RNA1{[moe]([m5C])[sp].[moe](T)p.[moe]([m5C])p.[moe]([m5C])p.[moe](T)[sp].d(G)[sp].d(T)[sp].d(T)[sp].d(T)[sp].d([m5C])[sp].d(A)[sp].d(G)[sp].d([m5C])[sp].d(A)[sp].d(T)[sp].[moe]([m5C])p.[moe](T)p.[moe](T)[sp].[moe]([m5C])}$$$$ (last 3' nucleoside missing)” showed a 3 h FOB score of 2 score 0-7. Work on “RNA1{[moe](A)[sp].[moe](G)p.[moe](T)p.[moe]([m5C])p.[moe](A)p.d(G)[sp].d([m5C])[sp].d([m5C])[sp].d(T)[sp].d(G)[sp].d(G)[sp].d(T)[sp].d(T)[sp].d(A)[sp].d(G)[sp].[moe]([m5C])p.[moe]([m5C])p.[moe](T)[sp].[moe](T)}$$$$ (last 3' nucleoside missing)” yielded a 3 h FOB score of 4 score 0-7. With “RNA1{[moe]([m5C])[sp].[moe](A)p.[moe](G)p.[moe]([m5C])p.d(A)[sp].d(T)[sp].d(T)[sp].d(T)[sp].d(G)[sp].d(T)[sp].d([m5C])[sp].d(T)[sp].d(T)[sp].d(T)[sp].[moe](A)p.[moe](T)p.[moe](T)p.[moe](T)[sp].[moe](T)}$$$$ (last 3' nucleoside missing)” the 3 h FOB score was 2 score 0-7. Substance “RNA1{[moe](G)[sp].[moe](T)p.[moe]([m5C])p.[moe](A)p.[moe](G)p.d([m5C])[sp].d([m5C])[sp].d(T)[sp].d(G)[sp].d(G)[sp].d(T)[sp].d(T)[sp].d(A)[sp].d(G)[sp].d([m5C])[sp].[moe]([m5C])p.[moe](T)p.[moe](T)[sp].[moe](T)}$$$$ (last 3' nucleoside missing)” has a 3 h FOB score of 5 score 0-7. With “RNA1{[moe](T)[sp].[moe](G)p.[moe](T)p.[moe](G)p.[moe](T)[sp].d(A)[sp].d(T)[sp].d(T)[sp].d(A)[sp].d(G)[sp].d(G)[sp].d(A)[sp].d(T)[sp].[moe]([m5C])p.[moe]([m5C])p.[moe]([m5C])[sp].[moe](A)}$$$$ (last 3' nucleoside missing)” the 3 h FOB score was 4 score 0-7. For “RNA1{[moe](T)[sp].[moe]([m5C])p.[moe](T)p.[moe](G)p.[moe]([m5C])[sp].d([m5C])[sp].d(A)[sp].d(T)[sp].d(T)[sp].d(T)[sp].d(A)[sp].d(T)[sp].d([m5C])[sp].d(T)[sp].d(G)[sp].[moe](T)p.[moe](G)p.[moe]([m5C])[sp].[moe](T)}$$$$ (last 3' nucleoside missing)”, the 3 h FOB score was 0 score 0-7.
